Assay results from patent publication US4352818A, “Diazepine derivatives and their use” (Hoffmann-La Roche Inc., priority 1981, dated 1982).

Legend:
[1] = system: activity of the diazepam in the pentetrazole test; assay: antagonism of diazepam in the pentetrazole test; format: in vivo; conditions: Mus musculus, po; counteracts the diazepam effect in 50% of the animals; diazepam 5 mg/kg i.p. 1 hour before, test compound p.o. 15 minutes before pentetrazole 120 mg/kg i.p.; mice
Method: (§1) This property was used to evaluate the test described hereinafter which permits the determination of compounds which are capable of antagonizing the central properties of 1,4-benzodiazepines which have tranquillizing activity.
(§2) The antagonistic activity of the compounds investigated, i.e. their ability to counteract the activity of the diazepam in the pentetrazole test, is determined by counting the mice which suffer convulsive attacks in this test.
In the following Table there are presented the results which have been obtained with representative members of the class of compound defined by formula I in the test previously described. The ED50 is the amount of test compound in mg/kg (p.o.) which in 50% of the animals counteracts the diazepam effect in the above test. Moreover, the Table contains the IC50 value (defined above) for all test compounds listed therein.

[2] = biological target: central benzodiazepine receptors; assay: inhibition of the binding of tritiated diazepam at the specific benzodiazepine receptors in the cerebral cortex; conditions: 50 percent inhibition of the specific binding of the tritiated diazepam
Method: The affinity of compounds of formula I to the central benzodiazepine receptors was determined according to the method described in Life Science 20, 2101-2110 (1977) and Science 198, 849-851 (1977). According to this method, the inhibition of the binding of tritiated diazepam at the specific benzodiazepine receptors in the cerebral cortex by the respective test substances is ascertained. The IC50 ("50% inhibiting concentration") is that concentration of the respective test substance which brings about a 50 percent inhibition of the specific binding of the tritiated diazepam at the specific benzodiazepine receptors in the cerebral cortex.

[3] = system: convulsive attacks in the pentetrazole test; assay: pentetrazole test (anticonvulsant activity of diazepam); format: in vivo; conditions: diazepam 5 mg/kg i.p. (supramaximal dosage), more than 900 mice
Method: as §1, §2

CN1Cc2c(Cl)ncn2-c2ccccc2C1=O [(a) H H Cl H --CH3 O --, 3-chloro-4,5-dihydro-5-methyl-6H-imidazo[1,5-a][1,4]benzodiazepin-6-one]
ED50 [1]: 1.7 mg/kg
IC50 [2]: 100 nM

CN1Cc2c(Cl)ncn2-c2cccc(Cl)c2C1=O [(a) H Cl Cl H --CH3 O --, 3,7-dichloro-4,5-dihydro-5-methyl-6H-imidazo[1,5-a][1,4]benzodiazepin-6-one]
ED50 [1]: 0.9 mg/kg
IC50 [2]: 3.6 nM

CN1Cc2c(Cl)ncn2-c2ccccc2C1=S [(a) H H Cl H --CH3 S --, 3-chloro-4,5-dihydro-5-methyl-6H-imidazo[1,5-a][1,4]benzodiazepine-6-thione]
ED50 [1]: 10.5 mg/kg
IC50 [2]: 250 nM

O=C1c2c(Cl)cccc2-n2cncc2C2C=CCN12 (racemic) [(a) H Cl H --CH=CH--CH2 -- O (R/S), (R,S)-8-chloro-11,13a-dihydro-9H-imidazo[1,5-a]pyrrolo[2,1-c][1,4]benzodiazepin-9-one]
ED50 [1]: 10.9 mg/kg
IC50 [2]: 240 nM

O=C1c2ccccc2-n2cnc(Br)c2[C@@H]2CCCN12 [(a) H H Br --(CH2)3 -- O (S), (S)-1-bromo-11,12,13,13a-tetrahydro-9H-imidazo[1,5-a]pyrrolo[2,1-c][1,4]benzodiazepin-9-one]
ED50 [1]: 9.9 mg/kg
IC50 [2]: 48 nM

COCc1ncn2c1CN(C)C(=O)c1ccccc1-2 [(a) H H --CH2 OCH3 H --CH3 O --, 4,5-dihydro-3-(methoxymethyl)-5-methyl-6H-imidazo[1,5-a][1,4]benzodiazepin-6-one]
ED50 [1]: 8.9 mg/kg
IC50 [2]: 380 nM

CN1Cc2c(Cl)ncn2-c2ccc(F)cc2C1=O [(a) F H Cl H --CH3 O --, 3-chloro-8-fluoro-4,5-dihydro-5-methyl-6H-imidazo[1,5-a][1,4]benzodiazepin-6-one]
ED50 [1]: 2.3 mg/kg
IC50 [2]: 28 nM

O=C1c2sccc2-n2cnc(Cl)c2[C@@H]2CCCN12 [(b) -- -- Cl --(CH2)3 -- O (S), (S)-1-Chloro-10,11,12,12a-tetrahydro-8H-imidazo[5,1-c]pyrrolo[1,2-a]thieno[3,2-e][1,4]diazepin-8-one]
ED50 [1]: 0.83 mg/kg
IC50 [2]: 17 nM

CN1Cc2c(Br)ncn2-c2ccc(F)cc2C1=O [(a) F H Br H --CH3 O --, 3-bromo-8-fluoro-4,5-dihydro-5-methyl-6H-imidazo[1,5-a][1,4]benzodiazepin-6-one]
ED50 [1]: 7.1 mg/kg
IC50 [2]: 51 nM

CN1Cc2cncn2-c2cccc(Cl)c2C1=O [(a) H Cl H H --CH3 O --, 7-chloro-4,5-dihydro-5-methyl-6H-imidazo[1,5-a][1,4]benzodiazepin-6-one]
ED50 [1]: 6.2 mg/kg
IC50 [2]: 110 nM

CN1Cc2c([N+](=O)[O-])ncn2-c2ccccc2C1=O [(a) H H --NO2 H --CH3 O --, 4,5-dihydro-5-methyl-3-nitro-6H-imidazo[1,5-a][1,4]benzodiazepin-6-one]
ED50 [1]: 4 mg/kg
IC50 [2]: 72 nM

O=C1c2ccccc2-n2cnc(Cl)c2[C@@H]2CCCN12 [(a) H H Cl --(CH2)3 -- O (S), (S)-1-chloro-11,12,13,13a-tetrahydro-9H-imidazo[1,5-a]pyrrolo[2,1-c][1,4]benzodiazepin-9-one]
ED50 [1]: 8 mg/kg
IC50 [2]: 120 nM

CN1C(=O)CN=C(c2ccccc2)c2cc(Cl)ccc21 [diazepam]
protection from convulsive attacks [3]: protects all experimental animals from convulsive attacks

CN1Cc2c(I)ncn2-c2ccccc2C1=O [(a) H H J H --CH3 O --, 4,5-dihydro-3-iodo-5-methyl-6H-imidazo[1,5-a][1,4]benzodiazepin-6-one]
ED50 [1]: 2.5 mg/kg
IC50 [2]: 23 nM

COCc1ncn2c1CN(C)C(=O)c1c(Cl)cccc1-2 [(a) H Cl --CH2 OCH3 H --CH3 O --, 7-chloro-4,5-dihydro-3-(methoxymethyl)-5-methyl-6H-imidazo[1,5-a][1,4]benzodiazepin-6-one]
ED50 [1]: 1.4 mg/kg
IC50 [2]: 30 nM

CN1Cc2c(Br)ncn2-c2ccccc2C1=O [(a) H H Br H --CH3 O --, 3-bromo-4,5-dihydro-5-methyl-6H-imidazo[1,5-a][1,4]benzodiazepin-6-one]
ED50 [1]: 4.5 mg/kg
IC50 [2]: 34 nM

O=C1c2c(Cl)cccc2-n2cnc(Cl)c2C2C=CCN12 (racemic) [(a) H Cl Cl --CH=CH--CH2 -- O (R/S), (R,S)-1,8-dichloro-11,13a-dihydro-9H-imidazo[1,5-a]pyrrolo[2,1-c][1,4]benzodiazepin-9-one]
ED50 [1]: 1 mg/kg
IC50 [2]: 3.9 nM
